Blank lines part the entries; values can stand above or below the compound they belong to.
Columns and labels:
Integrin alpha2/beta1 = Integrin alpha2/beta1 (Homo sapiens, UniProt P05556+P17301); assay: Antagonist activity at recombinant integrin alpha2 beta1 receptor (unknown origin) assessed as inhibition of interaction with biotinylated collagen type-1 after 3 hrs by solid phase ELISA-type assay; type: protein-complex assay
Cytochrome P450 1A2 = molecular target: T1, Cytochrome P450 1A2 (Homo sapiens, UniProt P05177); assay: Induction of CYP1A2 activity (unknown origin) relative to control; type: ADME
T1 sequence (P05177 whole entry): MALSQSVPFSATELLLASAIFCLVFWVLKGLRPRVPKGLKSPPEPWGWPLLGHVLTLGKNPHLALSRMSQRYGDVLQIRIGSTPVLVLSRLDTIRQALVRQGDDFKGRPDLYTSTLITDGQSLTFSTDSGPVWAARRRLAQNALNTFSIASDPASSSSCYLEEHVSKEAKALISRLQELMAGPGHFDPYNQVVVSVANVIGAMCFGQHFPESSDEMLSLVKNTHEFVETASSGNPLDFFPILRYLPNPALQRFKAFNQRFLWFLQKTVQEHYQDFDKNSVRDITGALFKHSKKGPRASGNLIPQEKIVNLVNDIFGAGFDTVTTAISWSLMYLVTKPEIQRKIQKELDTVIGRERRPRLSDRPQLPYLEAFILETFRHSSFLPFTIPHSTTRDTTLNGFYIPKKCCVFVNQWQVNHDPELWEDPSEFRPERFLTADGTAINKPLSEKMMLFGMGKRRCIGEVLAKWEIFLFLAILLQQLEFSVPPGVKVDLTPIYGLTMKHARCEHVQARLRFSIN

Plasma [1] = assay: Metabolic stability in rat plasma at 100 ng/mL measured after 4 hrs; type: ADME, cell-free
[2] = Plasma concentration in Sprague-Dawley rat at 4.8 mg/kg, iv administered as bolus dose measured after 1 hr by LC-MS/MS analysis; type: ADME, organism-based; parameters: dose 4.8 mg/kg, route intravenous
[3] = Drug excretion in Sprague-Dawley rat bile at 5 mg/kg, iv administered as bolus dose measured after 2 hrs by LC-MS/MS analysis; type: ADME, organism-based; parameters: dose 5 mg/kg, route intravenous; conditions: read-out: Drug excretion
[4] = Drug metabolism in Sprague-Dawley rat liver microsomes at 5 uM after 20 mins; type: ADME; conditions: read-out: Drug metabolism
Cytochrome P450 1A1 = molecular target: T2, Cytochrome P450 1A1 (Homo sapiens, UniProt P04798); assay: Induction of CYP1A1 activity (unknown origin) relative to control; type: ADME
T2 sequence (P04798 whole entry): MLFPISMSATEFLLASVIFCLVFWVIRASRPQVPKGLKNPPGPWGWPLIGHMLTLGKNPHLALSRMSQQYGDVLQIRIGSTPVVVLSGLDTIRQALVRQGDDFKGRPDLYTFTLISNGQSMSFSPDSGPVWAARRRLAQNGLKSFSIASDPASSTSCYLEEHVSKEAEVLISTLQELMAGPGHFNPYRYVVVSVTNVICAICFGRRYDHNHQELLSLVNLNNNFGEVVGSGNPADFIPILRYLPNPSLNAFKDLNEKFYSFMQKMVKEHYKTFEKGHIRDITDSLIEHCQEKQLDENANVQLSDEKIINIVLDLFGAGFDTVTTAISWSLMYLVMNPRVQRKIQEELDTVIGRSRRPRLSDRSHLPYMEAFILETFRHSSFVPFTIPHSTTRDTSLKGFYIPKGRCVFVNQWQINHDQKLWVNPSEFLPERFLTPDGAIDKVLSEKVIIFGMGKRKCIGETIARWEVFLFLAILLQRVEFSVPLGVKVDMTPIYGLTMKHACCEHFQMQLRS

[5] = Initial plasma concentration in Sprague-Dawley rat at 4.8 mg/kg, iv administered as bolus dose by LC-MS/MS analysis; type: ADME, organism-based; parameters: dose 4.8 mg/kg, route intravenous
[6] = Drug metabolism in Swiss CD-1 mouse liver microsomes at 5 uM after 20 mins; type: ADME, Microsome; conditions: read-out: Drug metabolism
[7] = Lipophilicity, log D of the compound at pH 7.4 at 25 degC; type: physicochemical; conditions: buffer
Cytochrome P450 3A4 [8] = molecular target: T3, Cytochrome P450 3A4 (Homo sapiens, UniProt P08684); assay: Inhibition of CYP3A4 (unknown origin) after 10 to 30 mins; type: ADME
T3 sequence (P08684 whole entry): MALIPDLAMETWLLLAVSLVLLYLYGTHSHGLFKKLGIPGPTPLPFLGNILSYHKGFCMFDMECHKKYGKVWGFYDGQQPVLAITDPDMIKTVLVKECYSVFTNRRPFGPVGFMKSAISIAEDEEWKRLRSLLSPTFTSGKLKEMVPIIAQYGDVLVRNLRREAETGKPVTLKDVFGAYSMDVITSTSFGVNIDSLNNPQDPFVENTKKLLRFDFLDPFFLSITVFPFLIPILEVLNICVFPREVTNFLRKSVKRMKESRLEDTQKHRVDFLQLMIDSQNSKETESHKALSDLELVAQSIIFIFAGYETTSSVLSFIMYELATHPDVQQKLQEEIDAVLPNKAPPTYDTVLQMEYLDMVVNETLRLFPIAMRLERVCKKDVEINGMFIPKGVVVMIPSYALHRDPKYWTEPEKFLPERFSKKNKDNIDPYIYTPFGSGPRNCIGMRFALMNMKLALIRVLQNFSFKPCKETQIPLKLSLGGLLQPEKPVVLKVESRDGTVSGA

[9] = Solubility of the compound at pH 7.4 at 25 degC; type: physicochemical; conditions: buffer
[10] = Permeability across human Caco2 cells; type: ADME, cell-based; conditions: Caco-2, read-out: permeability
[11] = Drug metabolism in human liver microsomes at 5 uM after 20 mins; type: ADME; conditions: read-out: Drug metabolism
Plasma [12] = assay: Metabolic stability in mouse plasma at 100 ng/mL measured after 4 hrs; type: ADME, cell-free
[13] = Volume of distribution at steady state in Sprague-Dawley rat at 4.8 mg/kg, iv administered as bolus dose by LC-MS/MS analysis; type: ADME, organism-based; parameters: dose 4.8 mg/kg, route intravenous; conditions: in vivo, read-out: Vdss
Cytochrome P450 3A4 [14] = molecular target: T3, Cytochrome P450 3A4; assay: Induction of CYP3A4 activity (unknown origin) relative to control; type: ADME
[15] = molecular target: Integrin alpha1/beta1 complex (Homo sapiens, UniProt P05556+P56199); assay: Antagonist activity at integrin alpha1beta1 receptor (unknown origin) assessed as inhibition of interaction with biotinylated collagen type-1 after 3 hrs by solid phase ELISA-type assay; type: protein-complex assay
Integrin alpha1/beta1 complex, sequence (P05556 whole entry): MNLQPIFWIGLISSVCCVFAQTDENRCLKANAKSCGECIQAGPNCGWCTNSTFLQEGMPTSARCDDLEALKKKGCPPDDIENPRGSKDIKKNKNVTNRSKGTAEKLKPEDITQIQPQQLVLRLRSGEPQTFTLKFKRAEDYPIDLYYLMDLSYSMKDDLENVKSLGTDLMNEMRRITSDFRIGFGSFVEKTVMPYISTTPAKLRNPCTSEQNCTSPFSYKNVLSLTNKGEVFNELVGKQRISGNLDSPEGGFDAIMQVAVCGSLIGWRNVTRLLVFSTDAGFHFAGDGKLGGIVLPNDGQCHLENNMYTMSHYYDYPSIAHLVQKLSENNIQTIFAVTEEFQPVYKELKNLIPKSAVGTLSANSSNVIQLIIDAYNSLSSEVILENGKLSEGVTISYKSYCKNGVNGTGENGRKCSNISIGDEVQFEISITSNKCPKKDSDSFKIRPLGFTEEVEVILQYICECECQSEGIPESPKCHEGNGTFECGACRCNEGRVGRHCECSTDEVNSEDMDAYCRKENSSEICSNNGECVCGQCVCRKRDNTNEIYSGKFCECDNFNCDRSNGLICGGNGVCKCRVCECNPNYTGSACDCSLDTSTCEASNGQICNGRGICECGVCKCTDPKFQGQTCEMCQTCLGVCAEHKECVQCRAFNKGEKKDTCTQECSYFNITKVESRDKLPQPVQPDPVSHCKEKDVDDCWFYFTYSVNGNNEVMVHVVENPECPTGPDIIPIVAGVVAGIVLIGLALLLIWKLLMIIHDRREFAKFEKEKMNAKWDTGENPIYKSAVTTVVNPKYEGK
Integrin alpha1/beta1 complex, sequence (P56199 whole entry): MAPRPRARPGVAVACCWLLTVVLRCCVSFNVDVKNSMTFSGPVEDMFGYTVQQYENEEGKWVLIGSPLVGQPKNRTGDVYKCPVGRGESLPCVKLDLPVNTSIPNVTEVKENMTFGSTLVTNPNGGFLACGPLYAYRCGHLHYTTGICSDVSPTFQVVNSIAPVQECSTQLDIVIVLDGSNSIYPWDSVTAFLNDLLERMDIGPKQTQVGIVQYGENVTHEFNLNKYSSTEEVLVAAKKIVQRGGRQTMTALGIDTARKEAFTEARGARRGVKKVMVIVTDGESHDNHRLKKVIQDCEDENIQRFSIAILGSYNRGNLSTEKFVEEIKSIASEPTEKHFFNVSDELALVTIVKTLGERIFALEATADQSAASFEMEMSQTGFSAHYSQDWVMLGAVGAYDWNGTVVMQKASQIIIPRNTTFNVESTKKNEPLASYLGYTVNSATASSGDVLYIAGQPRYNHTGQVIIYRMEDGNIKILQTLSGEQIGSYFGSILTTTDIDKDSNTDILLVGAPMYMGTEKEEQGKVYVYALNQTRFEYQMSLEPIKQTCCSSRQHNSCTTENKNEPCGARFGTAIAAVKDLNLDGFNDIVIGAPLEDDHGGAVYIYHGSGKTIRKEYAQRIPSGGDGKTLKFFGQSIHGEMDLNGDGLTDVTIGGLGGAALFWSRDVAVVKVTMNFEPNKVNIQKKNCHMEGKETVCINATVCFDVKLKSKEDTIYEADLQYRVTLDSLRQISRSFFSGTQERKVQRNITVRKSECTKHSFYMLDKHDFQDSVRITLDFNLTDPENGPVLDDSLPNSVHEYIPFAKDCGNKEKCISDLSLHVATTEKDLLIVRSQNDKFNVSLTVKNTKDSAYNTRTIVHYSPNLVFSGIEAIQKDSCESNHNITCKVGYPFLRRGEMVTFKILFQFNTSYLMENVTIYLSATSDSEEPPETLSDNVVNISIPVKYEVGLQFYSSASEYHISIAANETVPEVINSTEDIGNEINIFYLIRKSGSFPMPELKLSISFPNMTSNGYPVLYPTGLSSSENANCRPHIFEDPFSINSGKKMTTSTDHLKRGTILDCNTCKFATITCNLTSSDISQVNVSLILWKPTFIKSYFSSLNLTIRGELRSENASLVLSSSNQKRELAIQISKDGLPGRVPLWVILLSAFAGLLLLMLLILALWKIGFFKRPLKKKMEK

[16] = molecular target: Voltage-gated inwardly rectifying potassium channel KCNH2 (Homo sapiens, UniProt Q12809); assay: Inhibition of human ERG expressed in CHO cells by patch clamp assay; type: cell-based
Voltage-gated inwardly rectifying potassium channel KCNH2, sequence (Q12809 whole entry): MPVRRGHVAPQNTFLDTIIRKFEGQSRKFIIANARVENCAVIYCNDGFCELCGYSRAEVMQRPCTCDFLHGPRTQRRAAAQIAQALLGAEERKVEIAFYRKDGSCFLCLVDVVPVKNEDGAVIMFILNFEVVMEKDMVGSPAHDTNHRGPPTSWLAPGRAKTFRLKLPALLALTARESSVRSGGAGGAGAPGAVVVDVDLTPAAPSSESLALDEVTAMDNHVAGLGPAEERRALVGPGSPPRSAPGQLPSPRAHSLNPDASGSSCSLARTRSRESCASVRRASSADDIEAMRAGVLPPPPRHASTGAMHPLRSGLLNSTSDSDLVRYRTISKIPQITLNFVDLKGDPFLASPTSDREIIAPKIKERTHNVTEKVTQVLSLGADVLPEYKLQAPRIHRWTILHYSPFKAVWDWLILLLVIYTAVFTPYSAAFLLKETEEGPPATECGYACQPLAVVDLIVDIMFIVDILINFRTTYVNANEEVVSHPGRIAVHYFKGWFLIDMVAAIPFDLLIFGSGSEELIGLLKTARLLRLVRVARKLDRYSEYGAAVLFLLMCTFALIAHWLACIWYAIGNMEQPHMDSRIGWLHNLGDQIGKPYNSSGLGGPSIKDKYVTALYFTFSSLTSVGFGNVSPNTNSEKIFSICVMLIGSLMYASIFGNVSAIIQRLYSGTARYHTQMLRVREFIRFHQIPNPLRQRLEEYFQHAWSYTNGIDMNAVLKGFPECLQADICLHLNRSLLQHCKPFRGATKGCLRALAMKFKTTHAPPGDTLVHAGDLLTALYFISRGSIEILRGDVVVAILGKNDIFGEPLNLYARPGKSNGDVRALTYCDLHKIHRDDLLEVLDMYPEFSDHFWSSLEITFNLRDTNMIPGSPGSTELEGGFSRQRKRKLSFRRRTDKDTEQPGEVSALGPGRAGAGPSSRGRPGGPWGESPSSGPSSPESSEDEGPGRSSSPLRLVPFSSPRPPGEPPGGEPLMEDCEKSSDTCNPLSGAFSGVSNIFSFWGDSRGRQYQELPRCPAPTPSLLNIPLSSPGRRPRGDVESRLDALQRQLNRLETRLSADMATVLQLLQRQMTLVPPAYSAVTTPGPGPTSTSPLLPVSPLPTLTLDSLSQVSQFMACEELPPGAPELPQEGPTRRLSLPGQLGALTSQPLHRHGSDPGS

[17] = Half life in Sprague-Dawley rat at 4.8 mg/kg, iv administered as bolus dose by LC-MS/MS analysis; type: ADME, organism-based; parameters: dose 4.8 mg/kg, route intravenous; conditions: in vivo
Plasma [18] = assay: Metabolic stability in human plasma at 100 ng/mL measured after 4 hrs; type: ADME, cell-free
Integrin alpha-5/beta-1 = Integrin alpha-5/beta-1 (Homo sapiens, UniProt P05556+P08648); assay: Antagonist activity at integrin alpha5beta1 receptor (unknown origin) assessed as inhibition of interaction with biotinylated collagen type-1 after 3 hrs by solid phase ELISA-type assay; type: protein-complex assay
[19] = Drug excretion in Sprague-Dawley rat urine at 4.8 mg/kg, iv administered as bolus dose measured after 24 hrs by LC-MS/MS analysis; type: ADME, organism-based; parameters: dose 4.8 mg/kg, route intravenous; conditions: read-out: Drug excretion

Integrin alpha2/beta1, sequence (P05556 whole entry): as the sequence (P05556 whole entry) above
Integrin alpha2/beta1, sequence (P17301 whole entry): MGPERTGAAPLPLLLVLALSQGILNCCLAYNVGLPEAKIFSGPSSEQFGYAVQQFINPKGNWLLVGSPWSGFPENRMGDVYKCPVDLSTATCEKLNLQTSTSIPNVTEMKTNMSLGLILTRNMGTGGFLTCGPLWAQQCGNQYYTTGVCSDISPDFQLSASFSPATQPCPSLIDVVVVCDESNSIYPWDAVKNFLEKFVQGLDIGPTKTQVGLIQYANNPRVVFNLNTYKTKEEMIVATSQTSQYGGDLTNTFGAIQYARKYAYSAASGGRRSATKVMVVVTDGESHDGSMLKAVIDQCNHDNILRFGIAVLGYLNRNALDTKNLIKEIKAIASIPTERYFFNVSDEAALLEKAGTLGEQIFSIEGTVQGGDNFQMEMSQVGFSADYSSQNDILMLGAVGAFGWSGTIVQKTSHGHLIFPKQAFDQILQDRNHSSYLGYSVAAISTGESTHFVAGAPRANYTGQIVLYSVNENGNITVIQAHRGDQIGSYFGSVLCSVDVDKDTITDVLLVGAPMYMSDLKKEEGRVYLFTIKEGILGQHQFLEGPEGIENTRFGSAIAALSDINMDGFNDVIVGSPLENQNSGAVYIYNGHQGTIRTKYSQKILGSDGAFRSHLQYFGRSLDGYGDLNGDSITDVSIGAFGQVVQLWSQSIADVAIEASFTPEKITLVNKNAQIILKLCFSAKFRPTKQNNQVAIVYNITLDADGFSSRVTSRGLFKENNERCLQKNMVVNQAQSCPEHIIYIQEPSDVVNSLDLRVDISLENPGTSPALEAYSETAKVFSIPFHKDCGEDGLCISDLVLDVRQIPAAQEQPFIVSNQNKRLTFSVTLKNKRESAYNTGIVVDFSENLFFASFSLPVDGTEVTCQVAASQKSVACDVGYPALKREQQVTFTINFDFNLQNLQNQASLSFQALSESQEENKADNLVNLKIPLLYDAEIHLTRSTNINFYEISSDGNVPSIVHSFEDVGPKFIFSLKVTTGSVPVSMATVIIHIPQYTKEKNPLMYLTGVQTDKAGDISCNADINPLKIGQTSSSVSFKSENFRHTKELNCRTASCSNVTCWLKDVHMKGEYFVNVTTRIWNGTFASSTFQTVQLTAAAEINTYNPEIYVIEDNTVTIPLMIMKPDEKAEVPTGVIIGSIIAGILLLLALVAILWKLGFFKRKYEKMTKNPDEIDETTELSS

- IC50 (Integrin alpha2/beta1): > 5000 nM
Structure (SMILES): O=C1NC(C(=O)O)CCc2cn(cn2)CCCCOc2ccc(Cl)c1c2 (racemic)

- IC50 (Integrin alpha2/beta1): 176 nM
Structure (SMILES): O=C1N[C@H](C(=O)O)Cc2cn(cn2)C/C=C/Cc2ccc(Cl)c1c2

- Activity (Cytochrome P450 1A2): < 10%
- Stability (Plasma [1]): Stable
- concentration at 1 h [2]: < 10 ng/mL
- IC50 (Integrin alpha2/beta1): 4 nM
- dose excreted at 2 h [3]: 50%
- metabolised at 20 min, 5 µM [4]: 0%
- Activity (Cytochrome P450 1A1): < 10%
- C0 [5]: 1700 ng/mL
- metabolised at 20 min, 5 µM [6]: 0%
- logD [7]: 0.05
- IC50 (Cytochrome P450 3A4 [8]): > 30000 nM
- solubility [9]: 1540 µg/mL
- Papp [10]: 0.1 ×10⁻⁶ cm/s
- metabolised at 20 min, 5 µM [11]: 3%
- Stability (Plasma [12]): Stable
- Vd [13]: 3.6 L/kg
- Activity (Cytochrome P450 3A4 [14]): < 10%
- IC50 [15]: 33 nM
- half-life [17]: 14.4 min
- Stability (Plasma [18]): Stable
- IC50 (Integrin alpha-5/beta-1): 74 nM
- dose excreted at 24 h [19]: 24%
Structure (SMILES): Cl.O=C1N[C@H](C(=O)O)Cc2cn(cn2)C/C=C/COc2ccc(Cl)c1c2
- IC50 [16]: > 10000 nM

- IC50 (Integrin alpha2/beta1): 34 nM
Structure (SMILES): O=C1N[C@H](C(=O)O)Cc2cn(nn2)C/C=C/COc2ccc(Cl)c1c2

- IC50 (Integrin alpha2/beta1): 731 nM
Structure (SMILES): O=C1N[C@H](C(=O)O)Cc2cn(cn2)CCCCCOc2ccc(Cl)c1c2

- IC50 (Integrin alpha2/beta1): 366 nM
Structure (SMILES): O=C1N[C@H](C(=O)O)Cc2cn(cn2)CCCCOc2ccc(Cl)c1c2

- IC50 (Integrin alpha2/beta1): > 4000 nM
Structure (SMILES): O=C1NC(C(=O)O)Cc2ccccc2OCCCCOc2ccc(Cl)c1c2 (racemic)

- IC50 (Integrin alpha2/beta1): 233 nM
Structure (SMILES): O=C1N[C@H](C(=O)O)Cc2cccc(c2)OC/C=C/COc2ccc(Cl)c1c2

- IC50 (Integrin alpha2/beta1): 745 nM
Structure (SMILES): Cc1ccc2cc1C(=O)N[C@H](C(=O)O)Cc1cccc(c1)OCCCCO2

- IC50 (Integrin alpha2/beta1): 38 nM
Structure (SMILES): O=C1N[C@H](C(=O)O)Cn2cc(nn2)C/C=C/COc2ccc(Cl)c1c2 (mixture of isomers)

- IC50 (Integrin alpha2/beta1): 497 nM
Structure (SMILES): O=C1N[C@H](C(=O)O)Cc2cn(nn2)CCCCOc2ccc(Cl)c1c2

- IC50 (Integrin alpha2/beta1): 909 nM
Structure (SMILES): O=C1N[C@@H](C(=O)O)Cc2cn(cn2)C/C=C/COc2ccc(Cl)c1c2

- IC50 (Integrin alpha2/beta1): > 10000 nM
Structure (SMILES): O=C1N[C@H](C(=O)O)Cc2cccc(c2)OCCCCOc2cccc1c2

Continued, compound first:

Structure (SMILES): O=C1N[C@H](C(=O)O)Cc2cn(cn2)C/C=C/COc2ccc1c(Cl)c2 (mixture of isomers)
- IC50 (Integrin alpha2/beta1): 470 nM

Structure (SMILES): O=C1N[C@H](C(=O)O)Cc2ccc(cc2)OC/C=C/COc2ccc(Cl)c1c2
- IC50 (Integrin alpha2/beta1): 101 nM

Structure (SMILES): Cc1cccc(Cl)c1C(=O)N[C@@H](Cc1ccc(NC(=O)c2c(Cl)cccc2Cl)cc1)C(=O)O
- IC50 (Integrin alpha2/beta1): 214 nM

Structure (SMILES): O=C1N[C@H](C(=O)O)Cc2cccc(c2)OCCCCOc2ccc1c(F)c2
- IC50 (Integrin alpha2/beta1): > 4000 nM

Structure (SMILES): O=C1N[C@H](C(=O)O)Cc2cccc(c2)OC/C=C/COc2ccc1c(F)c2
- IC50 (Integrin alpha2/beta1): > 1000 nM

Structure (SMILES): O=C1N[C@H](C(=O)O)Cc2cccc(c2)OCCCCOc2ccc1c(Cl)c2
- IC50 (Integrin alpha2/beta1): 114 nM

Structure (SMILES): O=C1N[C@H](C(=O)O)Cc2ccc(nc2)OC/C=C/COc2ccc(Cl)c1c2
- IC50 (Integrin alpha2/beta1): 134 nM

Structure (SMILES): O=C1N[C@H](C(=O)O)Cc2ccc(cc2)OCCCCOc2cccc(Cl)c21
- IC50 (Integrin alpha2/beta1): 106 nM

Structure (SMILES): O=C1N[C@H](C(=O)O)Cn2cc(nn2)CCCCOc2ccc(Cl)c1c2
- IC50 (Integrin alpha2/beta1): 1300 nM

Structure (SMILES): O=C1N[C@H](C(=O)O)Cc2ccc(cc2)OC/C=C/COc2cccc(Cl)c21
- IC50 (Integrin alpha2/beta1): 178 nM
